Assays:
Assay in all cases: Kinase IC50 (Eurofins KinaseProfiler)
Format in all cases: biochemical
[1] = target: T1, Aurora-A (h) (Homo sapiens, UniProt O14965)
T1 construct: purchased Eurofins
Method: (§1) CBT-102 were tested against each of the selected kinases using the Eurofins standard KinaseProfder assays and following the relevant standard operating procedures. The required volume of the 50× stock of test compound (CBT-102) was added to the assay well, before a reaction mix containing the enzyme and substrate was added. The reaction was initiated by the addition of ATP at the selected concentration. There was no pre-incubation of the compound with the enzyme/substrate mix prior to ATP addition.
(§2) Data are handled using a custom-built in-house analysis software. Results are expressed as kinase activity remaining, as a percentage of the DMSO control. This is calculated using the following formula: […]
(§3) For IC50 determinations, data are analyzed using XLFit version 5.3 (ID Business Solutions).

[2] = target: T2, B-Raf (V599E) (h) (Homo sapiens, UniProt P15056, V600E)
T2 construct: purchased Eurofins
Method: as §1, §2, §3

[3] = target: T3, CDK2/cyclinE (h) (Homo sapiens, UniProt P24941)
T3 construct: purchased Eurofins (KinaseProfiler service)
Method: as §1, §2, §3

[4] = target: T4, CDK4/cyclinD3 (h) (Homo sapiens, UniProt P11802)
T4 construct: purchased Eurofins (KinaseProfiler service)
Method: as §1, §2, §3

[5] = target: T5, CDK6/cyclinD3 (h) (Homo sapiens, UniProt Q00534)
T5 construct: purchased Eurofins (KinaseProfiler service)
Method: as §1, §2, §3

[6] = target: T6, CDKL2 (h) (Homo sapiens, UniProt Q92772)
T6 construct: purchased Eurofins (KinaseProfiler service)
Method: as §1, §2, §3

[7] = target: T7, DDR1 (h) (Homo sapiens, UniProt Q08345)
T7 construct: purchased Eurofins (KinaseProfiler service)
Method: as §1, §2, §3

[8] = target: T8, DDR2 (h) (Homo sapiens, UniProt Q16832)
T8 construct: purchased Eurofins (KinaseProfiler service)
Method: as §1, §2, §3

[9] = target: T9, EphB4 (h) (Homo sapiens, UniProt P54760)
T9 construct: purchased Eurofins (KinaseProfiler service)
Method: as §1, §2, §3

[10] = target: T10, ErbB2 (h) (Homo sapiens, UniProt P04626)
T10 construct: purchased Eurofins (KinaseProfiler service)
T10 sequence (P04626 23-1255): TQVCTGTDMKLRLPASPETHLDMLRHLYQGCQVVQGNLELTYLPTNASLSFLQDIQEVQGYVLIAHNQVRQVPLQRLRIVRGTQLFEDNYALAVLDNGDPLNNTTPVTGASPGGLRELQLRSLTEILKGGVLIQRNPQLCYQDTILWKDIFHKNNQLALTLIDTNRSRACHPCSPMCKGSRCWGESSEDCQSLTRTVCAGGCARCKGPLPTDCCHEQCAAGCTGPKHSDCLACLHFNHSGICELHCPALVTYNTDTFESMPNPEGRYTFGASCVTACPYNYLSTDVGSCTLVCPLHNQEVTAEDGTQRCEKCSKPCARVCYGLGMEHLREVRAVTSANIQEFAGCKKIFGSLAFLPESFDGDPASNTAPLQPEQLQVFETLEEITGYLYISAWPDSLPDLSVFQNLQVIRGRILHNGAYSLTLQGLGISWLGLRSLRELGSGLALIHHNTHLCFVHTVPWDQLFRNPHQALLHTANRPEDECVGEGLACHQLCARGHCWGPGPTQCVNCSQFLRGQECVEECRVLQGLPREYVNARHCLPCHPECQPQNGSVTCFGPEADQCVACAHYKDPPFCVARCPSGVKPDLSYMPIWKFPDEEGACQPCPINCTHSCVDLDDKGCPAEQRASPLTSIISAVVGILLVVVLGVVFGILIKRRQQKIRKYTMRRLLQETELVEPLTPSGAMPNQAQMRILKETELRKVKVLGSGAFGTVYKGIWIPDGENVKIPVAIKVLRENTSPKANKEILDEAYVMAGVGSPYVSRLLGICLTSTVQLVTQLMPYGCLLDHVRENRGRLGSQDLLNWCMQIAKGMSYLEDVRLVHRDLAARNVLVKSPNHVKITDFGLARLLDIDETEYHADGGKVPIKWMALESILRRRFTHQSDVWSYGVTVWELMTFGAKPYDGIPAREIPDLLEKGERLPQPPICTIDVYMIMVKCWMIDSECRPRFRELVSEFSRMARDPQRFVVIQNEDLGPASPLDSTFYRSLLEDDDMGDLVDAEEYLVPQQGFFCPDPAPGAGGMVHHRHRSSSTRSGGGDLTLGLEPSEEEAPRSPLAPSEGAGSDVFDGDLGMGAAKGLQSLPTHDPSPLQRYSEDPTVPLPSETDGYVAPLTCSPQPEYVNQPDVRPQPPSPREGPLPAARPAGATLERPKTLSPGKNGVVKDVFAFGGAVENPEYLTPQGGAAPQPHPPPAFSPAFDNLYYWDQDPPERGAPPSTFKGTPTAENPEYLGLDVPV
Method: as §1, §2, §3

[11] = target: T11, FGFR2 (h) (Homo sapiens, UniProt P21802)
T11 construct: purchased Eurofins (KinaseProfiler service)
Method: as §1, §2, §3

[12] = target: T12, FGFR3 (h) (Homo sapiens, UniProt P22607)
T12 construct: purchased Eurofins (KinaseProfiler service)
Method: as §1, §2, §3

[13] = target: T13, Flt1 (h) (Homo sapiens, UniProt P17948)
T13 construct: purchased Eurofins (KinaseProfiler service)
Method: as §1, §2, §3

[14] = target: T14, Flt3 (h) (Homo sapiens, UniProt P36888)
T14 construct: purchased Eurofins (KinaseProfiler service)
T14 sequence (P36888 27-993): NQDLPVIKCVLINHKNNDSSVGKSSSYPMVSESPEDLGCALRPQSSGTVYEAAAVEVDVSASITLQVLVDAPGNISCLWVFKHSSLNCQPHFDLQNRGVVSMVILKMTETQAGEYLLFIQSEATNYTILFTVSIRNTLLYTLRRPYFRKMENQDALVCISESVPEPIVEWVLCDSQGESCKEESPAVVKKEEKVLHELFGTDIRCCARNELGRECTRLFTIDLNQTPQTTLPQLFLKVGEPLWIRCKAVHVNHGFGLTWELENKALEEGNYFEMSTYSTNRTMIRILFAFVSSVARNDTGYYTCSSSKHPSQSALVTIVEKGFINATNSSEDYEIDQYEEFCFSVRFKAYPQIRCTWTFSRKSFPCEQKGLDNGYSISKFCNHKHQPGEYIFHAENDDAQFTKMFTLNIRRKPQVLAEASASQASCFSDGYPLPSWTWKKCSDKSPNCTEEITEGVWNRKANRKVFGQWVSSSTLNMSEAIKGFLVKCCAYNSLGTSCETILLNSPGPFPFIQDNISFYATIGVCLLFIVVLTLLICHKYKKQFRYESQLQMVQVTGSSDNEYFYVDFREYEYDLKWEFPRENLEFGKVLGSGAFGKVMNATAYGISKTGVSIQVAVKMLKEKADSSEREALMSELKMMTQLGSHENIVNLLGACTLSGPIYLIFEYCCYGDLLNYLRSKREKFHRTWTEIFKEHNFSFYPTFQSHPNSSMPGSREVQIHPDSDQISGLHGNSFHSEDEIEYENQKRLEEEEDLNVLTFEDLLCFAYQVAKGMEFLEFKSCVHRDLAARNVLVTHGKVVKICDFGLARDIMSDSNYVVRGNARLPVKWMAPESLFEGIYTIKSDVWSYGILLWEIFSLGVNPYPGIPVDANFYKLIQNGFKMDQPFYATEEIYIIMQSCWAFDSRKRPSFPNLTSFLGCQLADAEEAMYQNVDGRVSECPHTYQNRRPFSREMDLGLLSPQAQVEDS
Method: as §1, §2, §3

[15] = target: T15, Flt4 (h) (Homo sapiens, UniProt P35916)
T15 construct: purchased Eurofins (KinaseProfiler service)
Method: as §1, §2, §3

[16] = target: T16, Fms (h) (CSF1R) (Homo sapiens, UniProt P07333)
T16 construct: purchased Eurofins (KinaseProfiler service)
Method: as §1, §2, §3

[17] = target: T17, MAP4K4 (h) (Homo sapiens, UniProt O95819)
T17 construct: purchased Eurofins (KinaseProfiler service)
Method: as §1, §2, §3

[18] = target: T18, MLK1 (h) (Homo sapiens, UniProt P80192)
T18 construct: purchased Eurofins (KinaseProfiler service)
T18 sequence (P80192 whole entry): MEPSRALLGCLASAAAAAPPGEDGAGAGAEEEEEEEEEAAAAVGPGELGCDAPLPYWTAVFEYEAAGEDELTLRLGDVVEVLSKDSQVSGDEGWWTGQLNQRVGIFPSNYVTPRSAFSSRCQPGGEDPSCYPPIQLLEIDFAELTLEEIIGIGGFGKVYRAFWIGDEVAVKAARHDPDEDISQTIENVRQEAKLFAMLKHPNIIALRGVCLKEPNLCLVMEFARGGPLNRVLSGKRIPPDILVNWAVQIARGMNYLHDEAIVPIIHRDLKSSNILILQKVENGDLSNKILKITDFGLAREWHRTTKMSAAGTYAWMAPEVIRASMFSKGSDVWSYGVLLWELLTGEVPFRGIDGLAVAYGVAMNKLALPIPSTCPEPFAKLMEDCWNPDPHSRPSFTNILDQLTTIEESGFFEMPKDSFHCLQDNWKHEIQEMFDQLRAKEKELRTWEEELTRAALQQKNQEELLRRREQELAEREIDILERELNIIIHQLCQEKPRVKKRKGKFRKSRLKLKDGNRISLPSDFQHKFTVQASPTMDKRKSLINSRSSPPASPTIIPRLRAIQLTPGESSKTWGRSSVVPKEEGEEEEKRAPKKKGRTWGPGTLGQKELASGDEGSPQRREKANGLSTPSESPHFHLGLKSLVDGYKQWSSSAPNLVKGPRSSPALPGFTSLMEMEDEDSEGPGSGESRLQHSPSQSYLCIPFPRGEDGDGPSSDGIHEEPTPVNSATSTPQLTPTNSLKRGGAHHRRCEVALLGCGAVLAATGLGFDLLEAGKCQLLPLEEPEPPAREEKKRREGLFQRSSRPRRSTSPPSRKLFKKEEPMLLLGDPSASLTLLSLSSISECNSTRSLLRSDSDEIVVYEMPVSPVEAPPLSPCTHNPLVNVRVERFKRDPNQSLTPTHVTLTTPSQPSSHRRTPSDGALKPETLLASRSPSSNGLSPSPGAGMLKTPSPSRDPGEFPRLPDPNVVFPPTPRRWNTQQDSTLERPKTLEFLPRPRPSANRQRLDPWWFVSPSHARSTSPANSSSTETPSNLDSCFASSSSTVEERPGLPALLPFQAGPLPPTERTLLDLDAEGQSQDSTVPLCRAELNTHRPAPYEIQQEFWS
Method: as §1, §2, §3

[19] = target: T19, PDGFRβ (h) (Homo sapiens, UniProt P09619)
T19 construct: purchased Eurofins (KinaseProfiler service)
Method: as §1, §2, §3

[20] = target: T20, PKA (h) (Homo sapiens, UniProt P17612)
T20 construct: purchased Eurofins
Method: as §1, §2, §3

[21] = target: T21, Pim-1 (h) (Homo sapiens, UniProt P11309)
T21 construct: purchased Eurofins
Method: as §1, §2, §3

[22] = target: T22, Plk1 (h) (Homo sapiens, UniProt P53350)
T22 construct: purchased Eurofins
T22 sequence (P53350 whole entry): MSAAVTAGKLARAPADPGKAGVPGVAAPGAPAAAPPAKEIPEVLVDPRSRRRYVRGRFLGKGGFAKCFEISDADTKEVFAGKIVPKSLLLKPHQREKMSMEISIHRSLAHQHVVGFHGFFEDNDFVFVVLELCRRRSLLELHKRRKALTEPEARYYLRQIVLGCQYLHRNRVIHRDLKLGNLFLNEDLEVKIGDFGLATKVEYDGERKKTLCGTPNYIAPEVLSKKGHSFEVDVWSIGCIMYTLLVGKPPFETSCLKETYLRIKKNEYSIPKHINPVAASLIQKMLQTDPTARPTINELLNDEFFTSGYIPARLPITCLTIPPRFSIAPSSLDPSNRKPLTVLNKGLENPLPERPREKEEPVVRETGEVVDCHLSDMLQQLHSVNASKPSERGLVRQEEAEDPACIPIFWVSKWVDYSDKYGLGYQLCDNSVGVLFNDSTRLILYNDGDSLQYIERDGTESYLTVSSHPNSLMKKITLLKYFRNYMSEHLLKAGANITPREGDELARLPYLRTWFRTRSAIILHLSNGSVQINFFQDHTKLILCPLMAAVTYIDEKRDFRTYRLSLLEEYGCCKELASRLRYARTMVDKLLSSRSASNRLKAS
Method: as §1, §2, §3

[23] = target: T23, PrKX (h) (Homo sapiens, UniProt P51817)
T23 construct: purchased Eurofins
Method: as §1, §2, §3

[24] = target: T24, RIPK2 (h) (Homo sapiens, UniProt O43353)
T24 construct: purchased Eurofins
Method: as §1, §2, §3

[25] = target: T25, Ret (V804M) (h) (Homo sapiens, UniProt P07949, V804M)
T25 construct: purchased Eurofins
Method: as §1, §2, §3

[26] = target: T26, SAPK2a (h) (Homo sapiens, UniProt Q16539)
T26 construct: purchased Eurofins
Method: as §1, §2, §3

[27] = target: T27, SAPK2b (h) (Homo sapiens, UniProt Q15759)
T27 construct: purchased Eurofins
Method: as §1, §2, §3

[28] = target: T28, SLK (h) (Homo sapiens, UniProt Q9H2G2)
T28 construct: purchased Eurofins
Method: as §1, §2, §3

[29] = target: T29, Syk (h) (Homo sapiens, UniProt P43405)
T29 construct: purchased Eurofins
Method: as §1, §2, §3

[30] = target: T30, TAK1 (h) (Homo sapiens, UniProt O43318)
T30 construct: purchased Eurofins
Method: as §1, §2, §3

[31] = target: T31, Tie2 (h) (Homo sapiens, UniProt Q02763)
T31 construct: purchased Eurofins
T31 sequence (Q02763 23-1124): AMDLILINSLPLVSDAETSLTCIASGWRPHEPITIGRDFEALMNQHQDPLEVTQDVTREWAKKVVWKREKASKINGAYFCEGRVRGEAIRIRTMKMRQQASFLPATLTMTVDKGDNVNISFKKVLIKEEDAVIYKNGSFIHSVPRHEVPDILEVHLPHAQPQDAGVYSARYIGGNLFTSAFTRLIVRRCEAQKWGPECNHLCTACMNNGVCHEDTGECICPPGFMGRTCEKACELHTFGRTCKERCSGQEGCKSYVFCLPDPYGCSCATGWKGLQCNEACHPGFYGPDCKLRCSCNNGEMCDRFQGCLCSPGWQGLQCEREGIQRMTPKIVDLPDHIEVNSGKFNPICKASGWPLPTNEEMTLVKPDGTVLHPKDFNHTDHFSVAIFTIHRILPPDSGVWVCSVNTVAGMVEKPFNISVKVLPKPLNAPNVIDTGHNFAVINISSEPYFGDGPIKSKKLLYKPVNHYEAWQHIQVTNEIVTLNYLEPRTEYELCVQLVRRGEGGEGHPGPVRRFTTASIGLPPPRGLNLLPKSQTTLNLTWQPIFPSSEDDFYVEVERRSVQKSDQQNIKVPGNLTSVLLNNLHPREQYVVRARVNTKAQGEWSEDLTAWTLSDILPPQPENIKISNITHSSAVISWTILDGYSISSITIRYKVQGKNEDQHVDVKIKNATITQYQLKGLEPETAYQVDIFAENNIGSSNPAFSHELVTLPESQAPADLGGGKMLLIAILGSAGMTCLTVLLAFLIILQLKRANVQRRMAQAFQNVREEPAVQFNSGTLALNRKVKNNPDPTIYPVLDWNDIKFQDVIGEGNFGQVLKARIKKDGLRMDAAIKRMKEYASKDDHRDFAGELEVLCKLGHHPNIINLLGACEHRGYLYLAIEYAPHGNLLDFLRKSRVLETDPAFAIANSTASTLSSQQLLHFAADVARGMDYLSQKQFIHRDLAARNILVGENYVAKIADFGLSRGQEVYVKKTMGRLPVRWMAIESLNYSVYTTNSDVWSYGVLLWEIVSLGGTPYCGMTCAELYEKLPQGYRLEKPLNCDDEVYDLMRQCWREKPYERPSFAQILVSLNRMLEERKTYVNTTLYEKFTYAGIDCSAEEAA
Method: as §1, §2, §3

[32] = target: T32, Wee1 (h) (Homo sapiens, UniProt P30291)
T32 construct: purchased Eurofins
Method: as §1, §2, §3

[33] = target: T33, ZAK (h) (Homo sapiens, UniProt Q9NYL2)
T33 construct: purchased Eurofins
Method: as §1, §2, §3

[34] = target: T34, cKit (V560G) (h) (Homo sapiens, UniProt P10721, V560G)
T34 construct: purchased Eurofins (KinaseProfiler service)
Method: as §1, §2, §3

[35] = target: T35, p70S6K (h) (Homo sapiens, UniProt P23443)
T35 construct: purchased Eurofins (KinaseProfiler service)
Method: as §1, §2, §3

**Q.** Which results are given for Cc1cc(Oc2cc(NC(=O)C3CC3)ncn2)ccc1NC(=O)Nc1ccc(Cl)c(C(F)(F)F)c1 [CBT-102]?
**A.** IC50 [1]: 1770 nM; IC50 [2]: 115 nM; IC50 [3]: > 10 µM; IC50 [4]: > 10 µM; IC50 [5]: > 10 µM; IC50 [6]: 37 nM; IC50 [7]: 34 nM; IC50 [8]: 263 nM; IC50 [9]: 486 nM; IC50 [10]: > 10 µM; IC50 [11]: 596 nM; IC50 [12]: > 10 µM; IC50 [13]: 21 nM; IC50 [14]: 1090 nM; IC50 [15]: 8 nM; IC50 [16]: 43 nM; IC50 [17]: 763 nM; IC50 [18]: 6.06 µM; IC50 [19]: 1320 nM; IC50 [20]: > 10 µM; IC50 [21]: > 10 µM; IC50 [22]: > 10 µM; IC50 [23]: > 10 µM; IC50 [24]: 107 nM; IC50 [25]: 693 nM; IC50 [26]: 180 nM; IC50 [27]: 70 nM; IC50 [28]: 879 nM; IC50 [29]: > 10 µM; IC50 [30]: 481 nM; IC50 [31]: 242 nM; IC50 [32]: > 10 µM; IC50 [33]: 26 nM; IC50 [34]: 38 nM; IC50 [35]: > 10 µM

— patent US20220088016A1, “CANCER TREATMENT USING MULTI-TARGETED KINASE INHIBITOR IN COMBINATION OF PROTEIN KINASE BIOMARKERS” (ZHEJIANG CROWNMAB BIOTECH CO. LTD., priority 2019, published 2022)
